In test [1] the test system is Trypanosoma brucei. The test can be described thus: Inhibitory activity against adenosine uptake through P2 adenosine transporter of blood stream Trypanosoma brucei trypomastigotes at the concentration 10 ug/mL.
For test [2], the system named is Trypanosoma brucei brucei. Put plainly: In vitro activity against Trypanosoma brucei trypomastigotes form. It counts as functional, organism-based.
The subject of test [3] is Trypanosoma brucei. The test can be described thus: Inhibitory activity against adenosine uptake through P2 adenosine transporter of blood stream Trypanosoma brucei trypomastigotes at the concentration 1 ug/mL.
The test system of test [4] is Trypanosoma brucei. Put plainly: Inhibitory activity against adenosine uptake through P2 adenosine transporter of blood stream Trypanosoma brucei trypomastigotes at the concentration 100 ug/mL.
Test [5] has as its system Trypanosoma brucei brucei. Put plainly: In vitro activity against bloodstream from trypomastigotes. It counts as functional, organism-based.

For orientation: inhibition means the share of the control response that was lost under treatment. The IC50 is the concentration that inhibits the measured activity by half. For `NCCCCN(CCCN)CCCNc1nc(N)nc(N)n1`, the inhibition with Trypanosoma brucei [1] stood at 5%; with Trypanosoma brucei [3] it was 7%; with Trypanosoma brucei [4] it was 61%. This compound also had an IC50 in test [2] of more than 200 µM.

On to `NCCCNCCCCN(CCCN)c1nc(N)nc(N)n1`, for which the results for the inhibition with Trypanosoma brucei [1], in the test on Trypanosoma brucei [3] and in the test on Trypanosoma brucei [4] were 44%, 24% and 60%, respectively. In addition, in test [2], the IC50 turned out to be 12 µM.

On to `Nc1nc(N)nc(NCCCNCCCNCCCCCCCNCCCNCCCNc2nc(N)nc(N)n2)n1`, for which the results for the inhibition in the test on Trypanosoma brucei [1], with Trypanosoma brucei [3] and with Trypanosoma brucei [4] were 18%, 0% and 88%, respectively. The compound also displayed a half-inhibitory concentration (IC50) in test [5] of 24 µM.

On to `Nc1[nH]cnc2ncnc1-2`, for which the inhibition in the test with Trypanosoma brucei [1] was found to be 89%; in the test on Trypanosoma brucei [3], 88%; in the test on Trypanosoma brucei [4], 99%.

With `NCCCNCCCCCCCNCCCNc1nc(N)nc(N)n1`, the inhibition in the test on Trypanosoma brucei [1] was 32%; in the test on Trypanosoma brucei [3], 12%; with Trypanosoma brucei [4], 77%. This compound showed an IC50 in test [5] of 21 µM.

As to `NCCCCN(CCCN)c1nc(N)nc(N)n1`, the inhibition in the test with Trypanosoma brucei [1] came to 47%; in the test on Trypanosoma brucei [3] it was 29%; in the test on Trypanosoma brucei [4], 73%. This compound also returned an IC50 in test [2] of more than 270 µM.

On to `N=C(N)c1ccc(/N=N/Nc2ccc(C(=N)N)cc2)cc1` [DIMINAZENE], for which the inhibition with Trypanosoma brucei [1] is 84%; with Trypanosoma brucei [3], 67%; in the test on Trypanosoma brucei [4] it was 99%. In addition, the IC50 in test [5] came to 0.003 µM.

In the case of `NCCCNCCCCN(CCCN)CCCNc1nc(N)nc(N)n1`, the inhibition worked out at 17% in the test on Trypanosoma brucei [1], 2% in the test with Trypanosoma brucei [3] and 37% with Trypanosoma brucei [4]. In addition, half-maximal inhibition in test [2] (IC50) required 24 µM.

For the compound `Nc1nc(N)nc(NCCCNCCCCCCCNCCCNc2nc(N)nc(N)n2)n1`, the figures for the inhibition in the test with Trypanosoma brucei [1], with Trypanosoma brucei [3] and with Trypanosoma brucei [4] were 63%, 36% and 93%, respectively. In test [5], this compound returned an IC50 of 110 µM.

The values are drawn from ChEMBL document CHEMBL1131358, “An approach to use an unusual adenosine transporter to selectively deliver polyamine analogues to trypanosomes” (Bioorg Med Chem Lett, 1998).
